Results as given in patent US20240252693A1, “FOLATE RECEPTOR-TARGETED RADIOTHERAPEUTIC AGENTS AND THEIR USE” (Novartis AG, priority 2021, published 2024).

What was measured:
[1] = biological target: T1, folate receptor (FR) on KB cells (Homo sapiens, UniProt P15328); assay: Relative affinity assay: displacement of [3H]folic acid from FR-positive KB cells; format: binding; settings: inverse molar ratio to displace 50% of 100 nmol/L [3H]FA, 1 h 37 °C, folic acid set to 1
T1 construct: endogenous in cells; host or cells: KB cells
Protocol: FR-positive KB cells were seeded in 24-well Falcon plates and allowed to form adherent monolayers (>90% confluent) overnight in FDRPMI/10% FCS media. Spent incubation medium was replaced with FFRPMI supplemented with 10% HIFCS and containing 100 nmol/L of [^3H]FA in the absence and presence of increasing concentrations of unlabeled folic acid (FA), Compound 34, Compound 37, or non-targeted control (Table 14). Cells were incubated for 1 h at 37° C. and then rinsed three times with 0.5 mL PBS (phosphate-buffered saline). Five hundred microliters of 1% SDS (sodium dodecyl sulfate) in PBS were added to each well; after 5 min, cell lysates were collected, transferred to individual vials containing 5 mL of scintillation cocktail, and then counted for radioactivity. Cells exposed to only the [^3H]FA in FFRPMI (no competitor) were designated as negative controls, whereas cells exposed to the [^3H]FA plus 1 mmol/L unlabeled FA served as positive controls. Disintegrations per minute (DPM) measured in the latter samples (representing nonspecific binding of label) were subtracted from the DPM values from all samples. Relative affinities were defined as the inverse molar ratio of compound required to displace 50% of [^3H]FA bound to FR on KB cells, and the relative affinity of FA for the FR was set to 1.

[2] = biological target: T2, folate receptors on FR-positive KB cells (Homo sapiens, UniProt P15328); assay: Binding affinity assay: direct binding of 177Lu-labelled compounds to FR-positive KB cells; settings: 177Lu-labelled compound, 1 h 37 °C
T2 construct: endogenous in cells; host or cells: KB cells
Protocol: FR-positive KB cells and FR-negative A549 cells were seeded in 24-well Falcon plates and allowed to form adherent monolayers (>90% confluent) overnight in FFRPMI/HIFCS. Spent incubation medium was replaced with FFRPMI supplemented with 10% HIFCS containing increasing concentrations (0.78 to 100 nmol/L) of [^177Lu]-Compound 34, [^177Lu]-Compound 37, or [^177Lu]-(non-targeted control) in the absence and presence of 10 μM FA. Cells were incubated for 1 h at 37° C. and then rinsed three times with 0.5 mL PBS. Five hundred microliters of 1% NaOH in PBS were added to each well; after 5 min, cell lysates were collected, transferred to individual tubes, and then counted for radioactivity on a gamma counter. Counts per minute (CPM) values were measured in all samples and plotted against concentration of [^177Lu]-Compound 34, [1^77Lu]-Compound 37, or [^177Lu]-(non-targeted control) using GraphPad Prism 8 program. Dissociation constants (Kd) was calculated using a GraphPad's nonlinear regression one site binding method.

FR-positive M109 tumor = assay: In vivo biodistribution in mice bearing M109 tumors; settings: 177Lu chelate
Excerpt: Four- to eight-week-old female nu/nu mice or NSG mice (Harlan Sprague-Dawley, Inc.) were maintained on a standard 12-h light-dark cycle and fed ad libitum with Folate deficient purified rodent diet (TestDiet #AIN-93G) for the duration of the experiment. FR-positive M109 or FR-negative HT29 tumor cells were inoculated in the subcutis dorsal medial area of mice. The biodistribution studies were typically performed when tumors were approximately 400-800 mm^3 in volume. Mice were divided into groups of three, and freshly prepared test articles and competitors were injected through the lateral tail vein in a volume of 100 μL/10 g of PBS. Four h to six days post radioactive-agent dose administration, mice were euthanized and organs (blood, heart, lungs, liver, spleen, and kidneys, intestine, stomach, muscle, brain and tumor) were collected, weighed and placed inside counting vials. Each tissue sample was counted for the activities of radioelement using a gamma-counter. Samples of the injectate were used as decay correction standards. Final bar graphs are expressed as % injected dose per gram of tissue or tumor to kidney ratio, or % tumor to (kidneys+liver+spleen) ratio.

KB tumor = assay: In vivo biodistribution in mice bearing KB tumors; settings: 225Ac chelate, 30 nmol/kg
[3] = tested on: FR-positive IGROV-1 tumor; assay: In vivo biodistribution in Athymic Nude-Foxn1nu mice bearing IGROV-1 tumors; settings: 177Lu chelate, 600 nmol/kg, 24 h post injection, mean ± SD
Protocol: Six week old female Athymic Nude-Foxn1nu mice (Envigo) were maintained on a standard 12-h light-dark cycle and fed ad libitum with folate deficient purified rodent dies (SSniff #E15321-147) for the duration of the experiment. FR-positive IGROV-1 tumor cells were inoculated in the subcutis dorsal medial area of mice. The biodistribution studies were […]. Mice were divided into groups of four, and freshly prepared test articles were injected through the lateral tail vein in a volume of 100 μL/10 g of PBS. Four h to 24 h post radioactive agent dose administration, mice were euthanized and organs (blood, bone, bowel (large and small), brain, heart, kidneys, liver, lungs, salivary glands, skeletal muscle, skin, spleen, stomach and tumor) were collected, weight and placed inside counting vials. Each tissue sample was counted for the activities of radioelement using a gamma-counter. Samples of the injective were used as decay correction standards. Final bar graph is expressed as % injected dose per gram of tissue FIG. 9.

[4] = Stability of [177Lu]-Compound 34 solution, radiochemical purity by radio-HPLC; format: physicochemical
Protocol: Preparation of [^177Lu]-Compound 34: Compound 34 solution (250 μL, 2 mM) was added to a vial. Gentisic acid/acetate buffer pH 5.5 (800 μL) and ^177LuCl3 solution (170 μL, 184 mCi) were added to the vial. The vial was placed in a shielded heating block and heated at 95° C. for 15 min. After cooling to room temperature, 7 mL of DTPA/sodium ascorbate solution pH 7.4 was added to the labeling mixture. The final solution contains 184 mCi of ^177Lu, 0.6 mg of Compound 34, 8 mg of gentisic acid, 1.5 mg of DTPA, 350 mg of sodium ascorbate.
[^177Lu]-Compound 34 solution was stored at room temperature and in a refrigerator. The radiochemical purities were monitored using radio-HPLC. [^177Lu]-Compound 34 was stable up to 6 days.

MDA-MB-231 tumors = assay: In vivo anti-tumor activity in mice bearing MDA-MB-231 tumors; settings: 300 nmol/3.7 GBq/kg, female nu nu mice, n=5
Protocol: (§1) Four- to eight-week-old female nu nu mice or NSG mice (Harlan Sprague-Dawley, Inc.) were maintained on a standard 12-h light-dark cycle and fed ad libitum with folate deficient purified rodent diet (TestDiet #AIN-93G). FR-positive (human breast adenocarcinoma) or IGROV (human ovarian adenocarcinoma) or KB (human cervical adenocarcinoma) tumor cells were inoculated subcutaneously at the right flank of each mouse. Mice were dosed with [^177Lu]-Compound 34, [^177Lu]-Compound 37, or [^225Ac]-Compound 5 through the lateral tail vein under sterile conditions in a volume of 100 μL/10 g of phosphate-buffered saline (PBS). Growth of each s.c. tumor was followed by measuring the tumor two times per week. Tumors were measured in two perpendicular directions using Vernier calipers, and their volumes were calculated as 0.5×L×W^2, where L=measurement of longest axis in mm and W=measurement of axis perpendicular to L in mm. A stable disease (SD) was defined as volume reduction of <50% and increase of <50% in two weeks. A partial response (PR) was defined as volume regression >50% but with measurable tumor (>2 mm^3) remaining at all times. Complete response (CR) was defined as a disappearance of measurable tumor mass (<2 mm^3) at some point within the study. Cures were defined as CRs without tumor regrowth within the study time frame. As a general measure of gross toxicity, changes in body weights were determined on the same schedule as tumor volume measurements.

[5] = Body weight as measure of gross toxicity in the MDA-MB-231 anti-tumor study; format: in vivo; settings: 300 nmol/3.7 GBq/kg, female nu nu mice bearing MDA-MB-231 tumors
Excerpt: as §1, with “Mice were dosed with [^177Lu]-Compound 34, [^177Lu]-Compound 37, or [^225Ac]-Compound 5 through the lateral tail vein under sterile conditions in a volume of 100 μL/10 g of phosphate-buffered saline (PBS).” left out

T1 sequence (P15328 25-234): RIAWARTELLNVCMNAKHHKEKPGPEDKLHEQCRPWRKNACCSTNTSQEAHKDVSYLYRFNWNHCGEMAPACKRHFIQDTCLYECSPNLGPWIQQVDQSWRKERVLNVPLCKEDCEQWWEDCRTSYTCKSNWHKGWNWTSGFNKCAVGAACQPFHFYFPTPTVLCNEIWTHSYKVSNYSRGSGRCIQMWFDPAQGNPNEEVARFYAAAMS
T2 sequence (P15328 25-234): as above

Compound	Relative Binding Affinity [1]	T/Kid (FR-positive M109 tumor; 300 nmol/kg)	T/Liv (FR-positive M109 tumor; 300 nmol/kg)	T/spl (FR-positive M109 tumor; 300 nmol/kg)	T^2/kid (FR-positive M109 tumor; 300 nmol/kg)	T/Kid [3]	T/Liv [3]	T/spl [3]	Kd [2]	partial responses (PRs) (MDA-MB-231 tumors)	average weight of mice (tolerability) [5]	further results
O=C(O)CN1CCN(CC(=O)O)CCN([C@@H](CCC(=O)NC[C@H](NC(=O)c2ccc(NCc3ccc4ccccc4c3)cc2)C(=O)O)C(=O)O)CCN(CC(=O)O)CC1 [(non- targeted control), reference compound]	Non- binder											Direct Binding (Kd, nM) [2]: Non- binder
Nc1nc2ncc(CNc3ccc(C(=O)N[C@@H](CCCCNC(=O)[C@H](Cc4ccc5ccccc5c4)NC(=O)[C@H]4CC[C@H](CNC(=O)CN5CCN(CC(=O)O)CCN(CC(=O)O)CCN(CC(=O)O)CC5)CC4)C(=O)O)cc3)nc2c(=O)[nH]1 [Compound 23]		0.37 +/− 0.11	25.8 +/− 2.4	108 +/− 12.7	1.47 +/− 0.66							T/Kid (KB tumor): 0.08 +/− 0.03; T/Liv (KB tumor): 1.8 +/− 0.7; T/spl (KB tumor): 10.1 +/− 4.7
Nc1nc2ncc(CNc3ccc(C(=O)N[C@@H](CCCCNC(=O)C[C@H](NC(=O)[C@H](Cc4ccc5ccccc5c4)NC(=O)CNC(=O)CN4CCN(CC(=O)O)CCN(CC(=O)O)CCN(CC(=O)O)CC4)C(=O)O)C(=O)O)cc3)nc2c(=O)[nH]1 [Compound 34, 2,2′,2″-(10-((3S,11S,14S)-1-(4-(((2-amino-4-oxo-3,4-dihydropteridin-6-yl)methyl)amino)phenyl)-3,11-dicarboxy-14-(naphthalen-2-ylmethyl)-1,9,13,16,19-pentaoxo-2,8,12,15,18-pentaazaicosan-20-yl)-1,4,7,10-tetraazacyclododecane-1,4,7-triyl)triacetic acid]	2.21	0.55 +/− 0.1	25.3 +/− 6.6	98.3 +/− 25.1	1.7 +/− 0.9	0.29 +/− 0.05	1.53 +/− 0.57	0.49 +/− 0.07				T/Kid (FR-positive M109 tumor; 600 nmol/kg): 0.80 +/− 0.18; T/Liv (FR-positive M109 tumor; 600 nmol/kg): 29.1 +/− 5.4; T/spl (FR-positive M109 tumor; 600 nmol/kg): 92.8 +/− 5.4; T^2/kid (FR-positive M109 tumor; 600 nmol/kg): 1.97 +/− 0.7
Nc1nc2ncc(CNc3ccc(C(=O)N[C@@H](CCCCNC(=O)COc4ccc(C[C@H](NC(=O)CNC(=O)CN5CCN(CC(=O)O)CCN(CC(=O)O)CCN(CC(=O)O)CC5)C(=O)O)cc4)C(=O)O)cc3)nc2c(=O)[nH]1 [Compound 37, 2,2′,2″-(10-(2-((2-(((S)-2-(4-(2-(((S)-5-(4-(((2-amino-4-oxo-3,4-dihydropteridin-6-yl)methyl)amino)benzamido)-5-carboxypentyl)amino)-2-oxoethoxy)phenyl)-1-carboxyethyl)amino)-2-oxoethyl)amino)-2-oxoethyl)-1,4,7,10-tetraazacyclododecane-1,4,7-triyl)triacetic acid]	1.53	0.46 +/− 0.14	13.2 +/− 4.5	61.9 +/− 14.4	1.51 +/− 0.57	0.15 +/− 0.03	1.37 +/− 0.37	0.49 +/− 0.17				
Nc1nc2ncc(CNc3ccc(C(=O)N[C@@H](CCCCNC(=O)C[C@H](NC(=O)[C@H](Cc4ccc5ccccc5c4)NC(=O)CNC(=O)CN4CCN(CC(=O)O)CCN(CC(=O)O)CCN(CC(=O)O)CC4)C(=O)O)C(=O)O)cc3)nc2c(=O)[nH]1 [[^177Lu]-Compound 34, metal not drawn]									7.21 nM	five	did not lose any significant weight	Radiochemical purity (%) ([4]; 0° C., 3 days): 97.19%; Radiochemical purity (%) ([4]; 0° C., 6 days): 96.58%; Radiochemical purity (%) ([4]; 0° C., initial): 97.14%; Radiochemical purity (%) ([4]; Room temperature (24° C.), 3 days): 96.77%; Radiochemical purity (%) ([4]; Room temperature (24° C.), 6 days): 95.89%; Radiochemical purity (%) ([4]; Room temperature (24° C.), initial): 97.14%; time over which the solution was stable ([4]; stored at room temperature and in a refrigerator, radio-HPLC): up to 6 days
Nc1nc2ncc(CNc3ccc(C(=O)N[C@@H](CCCCNC(=O)COc4ccc(C[C@H](NC(=O)CNC(=O)CN5CCN(CC(=O)O)CCN(CC(=O)O)CCN(CC(=O)O)CC5)C(=O)O)cc4)C(=O)O)cc3)nc2c(=O)[nH]1 [[^177Lu]-Compound 37, metal not drawn]									8.99 nM	four	did not lose any significant weight	complete response (CR) (MDA-MB-231 tumors): one
